Data on 35 compounds can be found in patent publication US9012651B2, “TRPV3 modulators” (AbbVie Inc., priority 2011, dated 2015).

The structures appear in SMILES notation.

human TRPV3 receptors, sequence (Q8NET8 whole entry): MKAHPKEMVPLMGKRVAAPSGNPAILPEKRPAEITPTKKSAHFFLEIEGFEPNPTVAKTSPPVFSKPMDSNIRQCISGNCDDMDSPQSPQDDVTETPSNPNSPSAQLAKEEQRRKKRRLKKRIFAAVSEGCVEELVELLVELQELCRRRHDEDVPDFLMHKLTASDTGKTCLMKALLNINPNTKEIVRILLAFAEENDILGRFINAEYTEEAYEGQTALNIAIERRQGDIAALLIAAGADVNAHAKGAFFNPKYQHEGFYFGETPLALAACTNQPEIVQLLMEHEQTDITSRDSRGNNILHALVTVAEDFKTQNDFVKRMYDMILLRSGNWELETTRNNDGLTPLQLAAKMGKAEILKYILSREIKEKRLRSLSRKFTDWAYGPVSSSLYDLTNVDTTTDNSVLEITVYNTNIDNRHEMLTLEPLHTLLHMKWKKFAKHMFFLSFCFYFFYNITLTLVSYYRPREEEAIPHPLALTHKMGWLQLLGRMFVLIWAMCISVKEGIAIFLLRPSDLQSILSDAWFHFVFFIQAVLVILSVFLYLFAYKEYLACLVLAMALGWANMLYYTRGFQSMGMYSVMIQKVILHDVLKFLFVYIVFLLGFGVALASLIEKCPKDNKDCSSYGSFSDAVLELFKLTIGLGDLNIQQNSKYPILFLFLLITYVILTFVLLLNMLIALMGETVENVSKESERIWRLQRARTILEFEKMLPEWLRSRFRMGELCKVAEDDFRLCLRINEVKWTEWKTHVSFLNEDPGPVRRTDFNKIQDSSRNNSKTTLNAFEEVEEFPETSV

The target in this test is human TRPV3 receptors (Homo sapiens (Human), UniProt Q8NET8). Description: Calcium flux assay (FLIPR TETRA), inhibition of the 2-APB response. It counts as cell-based. As to conditions: recombinant HEK293 cells stably expressing TRPV3, Calcium-4 dye, 2-APB at its EC80. On the procedure: (i) In Vitro Methods-Calcium Flux Assays:
Experiments were conducted using the FLIPR^TETRA®. On the day prior to the experiment, recombinant HEK293 cells that stably express human and mouse TRPV3 were removed from tissue culture flasks and plated in growth medium at 20,000 cells/well into black-walled clear-bottom 384-well Biocoat™ poly-D-lysine assay plates (BD Biosciences, Bedford, Mass.) using a Multidrop® dispenser (ThermoScientific, Waltham, Mass.). […] Cells were incubated for 90-120 minutes in the dark. Compounds were dissolved in DMSO to prepare a 10 mM stock solution. The intensity of the fluorescence was captured and digitally transferred to an interfaced PC. The peak increase in fluorescence over baseline (relative fluorescence units) was calculated and expressed as the percentage of the maximal 2-APB (2-aminoethoxyldiphenyl borate) response (in the absence of compound).
In the case of `OCC1(NCc2nc(-c3ccc(C(F)(F)F)cc3)ccc2F)CCCC1` [Example 80, {1-[({3-fluoro-6-[4-(trifluoromethyl)phenyl]pyridin-2-yl}methyl)amino]cyclopentyl}methanol], the half-maximal inhibitory concentration (IC50) is 290 nM.
Take `OCC1(NCc2nc(-c3ccc(C(F)(F)F)cc3)ccc2F)CCCCC1` [Example 81, {1-[({3-fluoro-6-[4-(trifluoromethyl)phenyl]pyridin-2-yl}methyl)amino]cyclohexyl}methanol]: the IC50 is 680 nM.
Under `C[C@H](CO)NCc1nc(-c2ccc(C(F)(F)F)cc2)ccc1F` [Example 82, (2R)-2-[({3-fluoro-6-[4-(trifluoromethyl)phenyl]pyridin-2-yl}methyl)amino]propan-1-ol] stands 1640 nM; under `CCC[C@H](CO)NCc1nc(-c2ccc(C(F)(F)F)cc2)ccc1F` [Example 83, (2R)-2-[({3-fluoro-6-[4-(trifluoromethyl)phenyl]pyridin-2-yl}methyl)amino]pentan-1-ol], 460 nM.
As to `OC[C@H](NCc1nc(-c2ccc(C(F)(F)F)cc2)ccc1F)C1CCCCC1` [Example 84, (2R)-2-cyclohexyl-2-[({3-fluoro-6-[4-(trifluoromethyl)phenyl]pyridin-2-yl}methyl)amino]ethanol], the concentration for half-maximal inhibition (IC50) is 700 nM.
Take `CC(C)(C)[C@H](CO)NCc1nc(-c2ccc(C(F)(F)F)cc2)ccc1F` [Example 85, (2R)-2-((3-fluoro-6-(4-(trifluoromethyl)phenyl)pyridin-2-yl)methylamino)-3,3-dimethylbutan-1-ol]: the IC50 was 520 nM.
To `CC(O)C(C)NCc1nc(-c2ccc(C(F)(F)F)cc2)ccc1F` (centres unmarked) [Example 86, 3-[({3-fluoro-6-[4-(trifluoromethyl)phenyl]pyridin-2-yl}methyl)amino]butan-2-ol] belongs 300 nM; to `CCC[C@H](CO)NCc1nc(-c2ccc(C(F)(F)F)nc2)ccc1F` [Example 87, (2R)-2-({[5-fluoro-6′-(trifluoromethyl)-2,3′-bipyridin-6-yl]methyl}amino)pentan-1-ol], 3100 nM; to `OC[C@H](NCc1nc(-c2ccc(C(F)(F)F)nc2)ccc1F)C1CCCCC1` [Example 88, (2R)-2-cyclohexyl-2-({[5-fluoro-6′-(trifluoromethyl)-2,3′-bipyridin-6-yl]methyl}amino)ethanol], 570 nM.
Under `CC(C)(C)[C@H](CO)NCc1nc(-c2ccc(C(F)(F)F)nc2)ccc1F` [Example 89, (2R)-2-({[5-fluoro-6′-(trifluoromethyl)-2,3′-bipyridin-6-yl]methyl}amino)-3,3-dimethylbutan-1-ol] stands 510 nM; under `CC(O)C(C)NCc1nc(-c2ccc(C(F)(F)F)nc2)ccc1F` (centres unmarked) [Example 90, 3-({[5-fluoro-6′-(trifluoromethyl)-2,3′-bipyridin-6-yl]methyl}amino)butan-2-ol], 2590 nM; under `CC(C)[C@H](CO)NCc1ccnc(-c2ccc(C(F)(F)F)cc2)n1` [Example 91, (2R)-3-methyl-2-[({2-[4-(trifluoromethyl)phenyl]pyrimidin-4-yl}methyl)amino]butan-1-ol], more than 20000 nM.
As to `CC(C)[C@H](CO)NCc1nc(N2CCC(F)(F)CC2)ccc1F` [Example 92, (2R)-2-({[6-(4,4-difluoropiperidin-1-yl)-3-fluoropyridin-2-yl]methyl}amino)-3-methylbutan-1-ol], the IC50 came out at 960 nM.
To `CC(C)[C@H](CO)NCc1nc(N2Cc3ccc(F)cc3C2)ccc1F` [Example 93, (2R)-2-({[3-fluoro-6-(5-fluoro-1,3-dihydro-2H-isoindol-2-yl)pyridin-2-yl]methyl}amino)-3-methylbutan-1-ol] belongs 270 nM; to `CC(C)[C@H](CO)NCc1nc(N2Cc3cccc(F)c3C2)ccc1F` [Example 94, (2R)-2-({[3-fluoro-6-(4-fluoro-1,3-dihydro-2H-isoindol-2-yl)pyridin-2-yl]methyl}amino)-3-methylbutan-1-ol], 120 nM; to `CC(C)[C@H](CO)NCc1nc(N2Cc3cccc(Cl)c3C2)ccc1F` [Example 95, (2R)-2-({[6-(4-chloro-1,3-dihydro-2H-isoindol-2-yl)-3-fluoropyridin-2-yl]methyl}amino)-3-methylbutan-1-ol], 340 nM.
Consider `CC(C)[C@H](CO)NCc1nc(N2Cc3ccc(C(F)(F)F)cc3C2)ccc1F` [Example 96, (2R)-2-[({3-fluoro-6-[5-(trifluoromethyl)-1,3-dihydro-2H-isoindol-2-yl]pyridin-2-yl}methyl)amino]-3-methylbutan-1-ol], for which the IC50 came out at 330 nM.
Under `CC(C)[C@H](CO)NCc1nc(N2CCc3c(F)cccc3C2)ccc1F` [Example 97, (2R)-2-({[3-fluoro-6-(5-fluoro-3,4-dihydroisoquinolin-2(1H)-yl)pyridin-2-yl]methyl}amino)-3-methylbutan-1-ol] stands 110 nM; under `CC(C)[C@H](CO)NCc1nc(N2CCc3ccc(F)cc3C2)ccc1F` [Example 98, (2R)-2-({[3-fluoro-6-(7-fluoro-3,4-dihydroisoquinolin-2(1H)-yl)pyridin-2-yl]methyl}amino)-3-methylbutan-1-ol], 320 nM; under `CC(C)[C@H](CO)NCc1nc(N2CCc3cccc(F)c3C2)ccc1F` [Example 99, (2R)-2-({[3-fluoro-6-(8-fluoro-3,4-dihydroisoquinolin-2(1H)-yl)pyridin-2-yl]methyl}amino)-3-methylbutan-1-ol], 140 nM.
For the compound `CC(C)[C@H](CO)NCc1nc(N2CCc3cc(Cl)ccc3C2)ccc1F` [Example 101, (2R)-2-({[6-(6-chloro-3,4-dihydroisoquinolin-2(1H)-yl)-3-fluoropyridin-2-yl]methyl}amino)-3-methylbutan-1-ol], the half-inhibitory concentration (IC50) came to 500 nM.
To `CC(C)[C@H](CO)NCc1nc(N2CCc3c(cccc3C(F)(F)F)C2)ccc1F` [Example 102, (2R)-2-[({3-fluoro-6-[5-(trifluoromethyl)-3,4-dihydroisoquinolin-2(1H)-yl]-pyridin-2-yl}methyl)amino]-3-methylbutan-1-ol] belongs 350 nM; to `CC(C)[C@H](CO)NCc1nc(N2CCc3ccc(C(F)(F)F)cc3C2)ccc1F` [Example 103, (2R)-2-[({3-fluoro-6-[7-(trifluoromethyl)-3,4-dihydroisoquinolin-2(1H)-yl]-pyridin-2-yl}methyl)amino]-3-methylbutan-1-ol], 260 nM.
As to `CC(C)[C@@H](NCc1nc(-c2ccc(C(F)(F)F)cc2)ccc1F)C(C)(C)O` [Example 105, (3R)-3-[({3-fluoro-6-[4-(trifluoromethyl)phenyl]pyridin-2-yl}methyl)amino]-2,4-dimethylpentan-2-ol], the IC50 is 2760 nM.
Under `CC(C)[C@@H](NCc1nc(-c2ccc(C(F)(F)F)nc2)ccc1F)C(C)(C)O` [Example 106, (3R)-3-({[5-fluoro-6′-(trifluoromethyl)-2,3′-bipyridin-6-yl]methyl}amino)-2,4-dimethylpentan-2-ol] stands 1260 nM.
As to `CC(C)[C@@H](NCc1nc(-c2ccc(C(F)(F)F)cc2)ccc1F)C(C)O` (stereo partly drawn) [Example 107, (3R)-3-[({3-fluoro-6-[4-(trifluoromethyl)phenyl]pyridin-2-yl}methyl)amino]-4-methylpentan-2-ol], the IC50 was 700 nM.
Under `CC(C)[C@@H](NCc1nc(-c2ccc(C(F)(F)F)nc2)ccc1F)C(C)O` (stereo partly drawn) [Example 108, (3R)-3-({[5-fluoro-6′-(trifluoromethyl)-2,3′-bipyridin-6-yl]methyl}amino)-4-methylpentan-2-ol] stands 540 nM.
Under `CC(C)[C@H](CO)NCc1ccc(F)c(-c2ccc(C(F)(F)F)nc2)n1` [Example 109, (2R)-2-({[3-fluoro-6′-(trifluoromethyl)-2,3′-bipyridin-6-yl]methyl}amino)-3-methylbutan-1-ol] stands 3590 nM; under `CC(C)[C@H](CO)NCc1nc(-c2ccc(C(F)(F)F)nc2)ccc1Cl` [Example 110, (2R)-2-({[5-chloro-6′-(trifluoromethyl)-2,3′-bipyridin-6-yl]methyl}amino)-3-methylbutan-1-ol], 630 nM; under `Cc1ccc(-c2ccc(C(F)(F)F)nc2)nc1CN[C@@H](CO)C(C)C` [Example 111, (2R)-3-methyl-2-({[5-methyl-6′-(trifluoromethyl)-2,3′-bipyridin-6-yl]methyl}amino)butan-1-ol], 1070 nM.
Turning to `COc1ccc(-c2ccc(C(F)(F)F)nc2)nc1CN[C@@H](CO)C(C)C` [Example 112, (2R)-2-({[5-methoxy-6′-(trifluoromethyl)-2,3′-bipyridin-6-yl]methyl}amino)-3-methylbutan-1-ol], the half-maximal inhibitory concentration (IC50) came to 15300 nM.
For `CC(C)[C@H](CO)NCc1nc(-c2cnc(C(F)(F)F)nc2)ccc1F` [Example 113, (2R)-2-[({3-fluoro-6-[2-(trifluoromethyl)pyrimidin-5-yl]pyridin-2-yl}methyl)amino]-3-methylbutan-1-ol], the 50% inhibitory concentration (IC50) stood at 2650 nM.
To `CC(C)[C@H](CO)NCc1nc(-c2cnc(OCC(F)(F)F)nc2)ccc1F` [Example 114, (2R)-2-[({3-fluoro-6-[2-(2,2,2-trifluoroethoxy)pyrimidin-5-yl]pyridin-2-yl}methyl)amino]-3-methylbutan-1-ol] belongs 2330 nM; to `CC[C@@H](NCc1nc(-c2ccc(C(F)(F)F)nc2)ccc1F)C(C)O` (stereo partly drawn) [Example 115, (3R)-3-({[5-fluoro-6′-(trifluoromethyl)-2,3′-bipyridin-6-yl]methyl}amino)pentan-2-ol], 510 nM.
Regarding `CC(C)[C@@H](NCc1nc(-c2ccc(C(F)(F)F)cc2)ccc1F)C(N)=O` [Example 116, (R)-2-((3-fluoro-6-(4-(trifluoromethyl)phenyl)pyridin-2-yl)methylamino)-3-methylbutanamide], the IC50 was more than 20000 nM.
